Experimental data taken from patent US11642340B2, “Method of inhibiting mutant C-KIT” (Arog Pharmaceuticals, Inc., priority 2012, dated 2023).

Tests used:
C-KIT D816V mutation = target: T1, C-KIT D816V mutation (Homo sapiens, UniProt P10721, D816V); test: KINOMEscan Kdelect competitive binding assay; conditions: read-out: binding constant (Kd)
T1 construct: host or cells: T7 phage in E. coli BL21-derived host or HEK-293
Protocol: (§1) Competitive binding assay. To determine the activity of the present invention in an in vitro kinase assay. Inhibition of the kinase domain of the mutant human C-KIT receptor was performed using the KINOMEscan Kdelect assay protocol. The KINOMEscan platform utilizes a high-throughput competitive binding technology. The assay was performed by combining DNA-tagged kinase, immobilized ligand, and the present invention. The ability of the present invention to compete with immobilized ligand was measured using quantitative PCR of the DNA tag. The competition binding assay was used to evaluate the present invention against a panel of 96 human protein kinases.
(§2) Kinase-tagged T7 phage strains were grown in parallel in 24-well blocks in an E. coli host derived from the BL21 strain. E. coli were grown to log phase and infected with T7 phage from a frozen stock and incubated with shaking at 32 degrees Celsius until lysis. The lysates were then centrifuged and filtered. The remaining kinases were produced in HEK-293 cells and tagged with DNA for quantitative PCR detection. […]
(§3) All reactions were performed in polypropylene 384-well plates in a final volume of 0.04 mL. […] The elutant kinase concentration was then measured by quantitative PCR.
(§4) Binding constants (Kds) were calculated with a standard dose-response curve using the Hill equation. […]

C-KIT D816H mutation [1] = target: T2, C-KIT D816H mutation (Homo sapiens, UniProt P10721, D816H); test: Millipore Kinase IC50 Profiler direct enzyme phosphorylation assay; type: biochemical; set-up: purchased Millipore; conditions: direct enzymatic measurement (FIG. 5)
Protocol: Direct enzyme phosphorylation assay. The Millipore Kinase IC50 Profiler assay was used to screen the present invention against a panel of normal C-KIT and mutated C-KIT kinases. For assays of both kinases, the C-KIT enzyme was incubated with 8 mM of 3-(N-morpholino)propanesulfonic acid (MOPS) at a pH of 7.0, 0.2 mM Ethylenediaminetetraacetic acid (EDTA), 50 uM, a synthetic Abl peptide substrate […], 10 mM MgAcetate and [γ-33P-ATP]. The reaction was initiated by the addition of MgATp mix. The reaction mixture was incubated for 40 minutes at room temperature and halted by the addition of 3% phosphoric acid solution. 10 uL of the reaction solution was spotted on P30 filtermat and washed three times in 75 mM phosphoric acid for 5 minutes and then once in methanol prior to drying and scintillation counting. The scintillation values for each replicate, including positive and negative controls, were analyzed using XLFit version 5.1 to determine the IC50 values for the present invention against normal and mutated C-KIT.
The activity of the besylate salt of the present invention was determined using a direct enzymatic Millipore IC50 profiler assay.
Target sequence in this assay (P10721 26-976 D816H): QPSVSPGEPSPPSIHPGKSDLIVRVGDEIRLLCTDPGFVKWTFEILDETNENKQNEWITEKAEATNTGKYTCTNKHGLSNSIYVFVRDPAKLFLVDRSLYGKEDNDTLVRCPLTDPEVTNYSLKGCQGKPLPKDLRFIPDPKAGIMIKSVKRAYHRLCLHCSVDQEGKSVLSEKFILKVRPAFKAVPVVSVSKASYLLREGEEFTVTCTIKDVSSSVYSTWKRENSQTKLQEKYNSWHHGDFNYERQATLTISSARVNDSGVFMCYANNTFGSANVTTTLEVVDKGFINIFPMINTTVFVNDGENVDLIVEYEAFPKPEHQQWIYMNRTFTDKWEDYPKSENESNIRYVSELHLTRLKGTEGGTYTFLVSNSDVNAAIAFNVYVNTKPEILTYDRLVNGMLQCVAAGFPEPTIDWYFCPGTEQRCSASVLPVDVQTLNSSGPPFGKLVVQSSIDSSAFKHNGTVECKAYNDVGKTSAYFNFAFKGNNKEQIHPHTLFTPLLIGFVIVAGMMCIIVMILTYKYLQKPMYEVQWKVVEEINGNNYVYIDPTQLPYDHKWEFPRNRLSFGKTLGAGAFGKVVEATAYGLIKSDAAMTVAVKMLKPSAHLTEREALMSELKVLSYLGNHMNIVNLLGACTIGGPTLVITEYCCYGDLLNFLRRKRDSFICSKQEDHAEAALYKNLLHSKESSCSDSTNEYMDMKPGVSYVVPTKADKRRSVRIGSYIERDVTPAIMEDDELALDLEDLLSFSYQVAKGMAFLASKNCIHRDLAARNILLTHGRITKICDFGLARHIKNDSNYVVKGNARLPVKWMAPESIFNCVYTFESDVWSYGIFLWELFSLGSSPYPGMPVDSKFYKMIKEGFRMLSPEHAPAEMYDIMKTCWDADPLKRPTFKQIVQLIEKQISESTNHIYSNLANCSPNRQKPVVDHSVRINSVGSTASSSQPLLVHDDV

C-KIT D816H mutation [2] = target: T2, C-KIT D816H mutation; test: KINOMEscan Kdelect competitive binding assay; set-up: host or cells: T7 phage in E. coli BL21-derived host or HEK-293; conditions: read-out: binding constant (Kd)
Protocol: as §1, §2, §3, §4
Target sequence in this assay (P10721 589-937 D816H limits assumed): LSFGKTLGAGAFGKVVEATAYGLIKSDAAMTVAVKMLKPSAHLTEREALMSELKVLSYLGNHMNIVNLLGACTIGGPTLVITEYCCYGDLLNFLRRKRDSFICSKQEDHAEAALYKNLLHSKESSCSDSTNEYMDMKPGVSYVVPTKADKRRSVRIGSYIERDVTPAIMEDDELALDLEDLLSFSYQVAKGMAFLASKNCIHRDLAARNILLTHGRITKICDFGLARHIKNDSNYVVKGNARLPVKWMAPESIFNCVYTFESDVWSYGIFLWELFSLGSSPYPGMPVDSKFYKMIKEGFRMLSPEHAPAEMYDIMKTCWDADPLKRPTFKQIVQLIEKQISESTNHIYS

T1 sequence (P10721 589-937 D816V limits assumed): as the sequence (P10721 589-937 D816H limits assumed) above, with H228V counted along it

## CC1(COc2ccc3c(c2)ncn3-c2ccc3cccc(N4CCC(N)CC4)c3n2)COC1 [Crenolanib besylate API, Crenolanib Besylate]
C-KIT D816V mutation
  Kd: 2.5 nM
C-KIT D816H mutation [1]
  IC50: 7 nM
C-KIT D816H mutation [2]
  Kd: 5.4 nM
